Data on two compounds can be found in patent US20250325499A1, “IMMUNO-ABLATION TREATMENT FOR SOLID TUMORS” (Northwestern University, priority 2022, published 2025).

Molecules are shown by their SMILES.

For data set [1], the system named is N1S1 cells. The data set can be described thus: Cellular uptake of curcumin (confocal images, flow cytometry).
Experimental: Briefly, the N1S1 cells (1×10^5/mL) were cultured in a confocal dish (MatTek, 35 mm dish with 14 mm glass bottom). The cellular nucleus was stained with DAPI. Cell membranes were stained with Dil red (D282) following the protocol from ThermoFisher. […] The cells were then fixed by 4% paraformaldehyde and visualized with a confocal microscope (Nikon AIRS).
(§4) N1S1 cells were seeded onto the six-well plate (2×10^5/well). […] After washing the cells with PBS, they were fixed with 4% formalin at room temperature for 15 minutes. The results were examined by flow cytometry.
The subject of another data set is p-p65. The data set can be described thus: Western blot of p-p65 in N1S1 hepatoma cells. As to conditions: ethanol 10, 5 and 1%. It counts as cell-based. The protocol:
(§1) N1S1 cells were seeded in the 8 cm culture dishes and cultured at 5% CO2, 37° C. overnight. The cells were treated with various groups for […]: ethanol (25, 20, 15, 10, and 5%) for 4, 12, and 24 h, and 15% ethanol+Cur1, 10% ethanol+Cur1, 15% ethanol+Cur2, 10% ethanol+Cur2, 15% ethanol+Cur3, and 10% ethanol+Cur3 for 24 h. […] No treatment of N1S1 was used as control. The cell lysates were collected and analyzed by Western blotting according to the manufacturer's instructions. Antibodies were used listed as below: GPX4 Rabbit anti-Human, Mouse, Rat, Polyclonal, Invitrogen™, catalog number: PIPA579321, dilution 0.1-0.5 μg/mL; p-STAT3 Rabbit mAb, cell signaling, catalog number: 9145, dilution 1:2000; p-p65 Rabbit mAb, cell signaling, catalog number: 3033, dilution 1:1000; PD-L1 Polyclonal Antibody, Invitrogen™, catalog number: PA5-20343, dilution 0.5-2 μg/mL; β-Actin (8H10D10) Mouse mAb (HRP Conjugate), cell signaling, catalog number: 12262, dilution 1:1000.
(§2) Western blot assay was then used to identify specific molecules associated with cancer cell response to the ethanol treatments. […] However, relatively low ethanol concentrations (10, 5, and 1%) increased the GPX-4 level at 12 h post-treatment compared to 4 h post-treatment, indicating a defensive response to the oxidative stress caused by ethanol. […]

The subject of data set [2] is N1S1 cells. The data set can be described thus: Cell viability assay (CCK-8). It counts as cell-based.
Experimental: N1S1 cells (1×10^4/mL) were seeded onto 96-well plates. […] Then the cells were washed with PBS and replenished with fresh media. After 24 h or 48 hr incubation, the cells viability was measured with CCK-8 assay.
The test system of data set [3] is N1S1 cells.
Experimental: as §4
Another data set deals with p-STAT3. Kind of data set: Western blot of p-STAT3 in N1S1 hepatoma cells. In kind it is cell-based. The following applies: ethanol 10, 5 and 1%. The protocol:
as §1, §2
A general note: A western blot detects proteins with antibodies after separation by electrophoresis.

The test system of data set [4] is N1S1 HCC tumors in rat liver. Kind of data set: In vivo abscopal effect of ethanol-curcumin treated N1S1 cells, tumor volume by MRI. As to conditions: left lobe inoculated with treated N1S1 cells (10% ethanol or 10% ethanol plus Cur2 0.5% w/v) mixed with non-treated cells, MRI 8-day post-inoculation. The text has this: (§3) The rats in the control group were only inoculated in the right lobe of the liver with 5 million non-treated N1S1 cells. The right-side tumors (arrow in FIG. 5A) were established for testing abscopal effect. These tumors were collected for an immune status assay. The tumor in the control group was used as the baseline.

Data set [5] deals with N1S1 HCC tumors in rat liver. The data set can be described thus: In vivo immune status of right-side tumors by flow cytometry. The following applies: 8 days post treatment.
From the text: To test in vivo tumor neutrophil cell populations, rats were sacrificed, and tumors were harvested at 8 days post treatment and examined by flow cytometry after immunofluorescence staining with anti-CD45-BV605, anti-Granulocytes-PE, and anti-CD11b/c-PerCP/eF710. To determine the intra-tumoral infiltration of CD8+ (CD3+CD4-CD8+), lymphocytes were stained with anti-CD45-BV605, anti-CD3-FITC, anti-CD11b/c-PerCP/eF710, anti-CD4-APC/Cy7, anti-CD8-V450, and anti-IFN-gamma-AF647. To determine the intra-tumoral infiltration of CD4+ (Treg), lymphocytes were stained with anti-CD45-BV605, anti-CD3-FITC, anti-CD11b/c-PerCP/eF710, anti-CD4-APC/Cy7, anti-CD8-V450, anti-CD25-PE, and anti-Foxp3-APC. All antibodies were diluted with the ratio of 1:100 and signal color beads (OneComp eBeads™ Compensation Beads) and unstained bead were used for compensation.
as §3
Background: In flow cytometry, cells or beads pass a laser one at a time.

The next data set relates to GPX-4. The protocol: as §1
Western blot assay was then used to identify specific molecules associated with cancer cell response to the ethanol treatments. […] However, relatively low ethanol concentrations (10, 5, and 1%) increased the GPX-4 level at 12 h post-treatment compared to 4 h post-treatment, indicating a defensive response to the oxidative stress caused by ethanol. […] This is in agreement with the results of the cell viability and Annexin-V/PI assays (FIG. 1).

A further data set deals with PD-L1. Kind of data set: Western blot / flow cytometry of PD-L1 in N1S1 hepatoma cells. In kind it is cell-based. As to conditions: ethanol 10, 5 and 1%. The protocol:
as §1, §2

Turning to `COc1cc(/C=C/C(=O)CC(=O)/C=C/c2ccc(O)c(OC)c2)ccc1O` [curcumin, (1E,6E)-1,7-bis(4-hydroxy-3-methoxyphenyl)hepta-1,6-diene-3,5-dione], the “cellular uptake of curcumin (green fluorescence signal)” value in the data set with N1S1 cells [1] (higher concentration of ethanol in ethanol-curcumin solution) is “higher cellular uptake”. Further, the “time curcumin maintained in N1S1 hepatoma cells” value with N1S1 cells [1] (uptake amplified by the ethanol solution) is “at least 48 h”.

Take `CCO` [ethanol]: in the data set with p-p65, the p-p65 activation result is listed as “consistent activation”. The “cell-killing effect on N1S1 hepatoma cells (CCK-8 cell viability)” value in the data set with N1S1 cells [2] (ethanol 15% to 1%, 5-min and 10-min coincubation) is recorded as “modest cell-killing effect”. For the same compound, the “growth inhibition of N1S1 hepatoma cells (CCK-8 cell viability)” value with N1S1 cells [2] (ethanol 25% and 20%, 5-min and 10-min coincubation, 24 h and 48 h post-treatment) is “efficient growth inhibition”. Besides, the “liver cancer cell N1S1 growth” value in the data set on N1S1 cells [2] (ethanol 25% to 5%, 10 min coincubation) is on record as “inhibits”. The “cell viability at 48 h post-treatment” value in the data set with N1S1 cells [2] (lower ethanol concentrations, 5-min and 10-min coincubation, 48 h vs 24 h) is listed as “recovery of cell viability”. In addition, the “early apoptosis and late apoptosis populations (Annexin-V/PI)” value in the data set on N1S1 cells [3] (10-min coincubation, various ethanol concentrations, found even at 0 h) is “Dosage-dependent increase”. The “live cell populations at 48 h” value with N1S1 cells [3] (ethanol 15%, 10%, 5%, 1%, 48 h) is listed as “higher live cell populations”. In addition, the “late apoptosis population at 48 h compared to 0 h and 24 h” value in the data set on N1S1 cells [3] (ethanol 25% and 20%, 10-min coincubation) is recorded as “decreased late apoptosis population”. For the same compound, the “live cell populations (Annexin-V negative and PI negative)” value in the data set with N1S1 cells [3] (ethanol 25% and 20%, all time points (0, 24, 48 h)) is “remained low”. Also, in the data set with p-STAT3, the p-STAT3 activation result is on record as “consistent activation”. The “average tumor volume of right-side HCC tumors” value in [4] is given as “about 130 mm^3”. In addition, in data set [5], the “IL-17 T cells in right-side tumor, difference among groups” value is given as “no significant difference”; the “neutrophil population in right-side tumor compared to control” value is reported as “no significant difference”; the “population of Tregs in right-side tumor compared to control group” value was “decreased population”. For the same compound, the “GPX-4 level at 12 h compared to 4 h post-treatment” value in the data set with GPX-4 (ethanol 10, 5 and 1%) is “increased”. In addition, in the data set with GPX-4 (ethanol 10, 5 and 1%, 24 h), the “expression of GPX-4 at 24 h post-treatment” value was “reduced to normal levels”. In addition, in the data set with GPX-4 (ethanol 25, 20 and 15%, 4 h, 12 h and 24 h), the GPX-4 level result is “consistently low”. For the same compound, the PD-L1 expression result in the data set with PD-L1 is recorded as “upregulation”.
